Assay results taken from patent US20120329770A1, “CEPHALOSPORIN DERIVATIVES USEFUL AS BETA-LACTAMASE INHIBITORS AND COMPOSITIONS AND METHODS OF USE THEREOF” (priority 2010, published 2012).

How the values were obtained:
[1] = tested on: Chryseobacterium meningosepticum IS 5824; assay: Antimicrobial MIC / checkerboard assay for synergy with meropenem; type: cell-based; settings: for FIC: meropenem + compound, checkerboard
Method: (§1) Assays were conducted as described by Weigand et al. (Weigand, I.; Hilpert, K.; Hancock, R. E. Nat. Protocols 2008, 3, 163-175).
(§2) To determine the lowest concentration of an antimicrobial agent that inhibits visible growth of a microorganism, 50 μL of compound solution and 50 μL of buffer solution were added to each well at the desired concentration(s) (i.e. 4×the final concentration) as well as a zero control. Stock solutions of 10 mg/mL, were prepared in DMSO, followed by two-fold serial dilutions in Müeller-Hinton media and 100 μL of bacteria (ca. 5×10^5 CFU/mL) was added to each well. Plate counts were performed on the control wells to determine bacterial innoculum level. The innoculum was prepared by taking an overnight culture in Müeller-Hinton media and diluting to McFarland's 0.5 standard, and diluting a further 1:100 prior to addition to the plate. Lanes with no bacteria added served as sterility controls and lanes with no compound served as growth controls. Organisms were allowed to grow overnight at 37° C. in a humid environment and the plates were monitored at 625 nm for growth. MIC was determined to be the last well with no growth.
(§3) In the checkerboard assay one compound is serially diluted along the ordinate, and the second compound is serially diluted along the abscissa. […] A 50 μL aliquot of the compound was added to each well at the desired concentration(s) (i.e. 4×the final concentration) as well as a zero control. Stock solutions of 10 mg/mL of compound were prepared in DMSO, followed by two-fold serial dilutions in Müeller-Hinton media. Finally, 100 μL of bacteria (ca. 5×10^5 CFU/mL) was added to each well. Plate counts were performed on the control wells. Innoculum was prepared by taking an overnight culture in Müeller-Hinton media and diluting to McFarland's 0.5 standard, and diluting a further 1:100 prior to addition to the plate. Lanes with no bacteria added served as sterility controls and lanes with no meropenem or compound served as growth controls. The final volume in each well was 200 μL. The plates were allowed to grow overnight at 37° C. in a humid environment and were monitored at 625 nm for growth. […] Sterility controls and growth controls were included on each plate. The fractional inhibitory concentration (FIC) was determined as follows:
(§4) Results were interpreted in the following way: Synergistic if FIC≦0.5; Additive if […]; Indifferent if […]; Antagonistic if FIC≧2.0.

[2] = tested on: Pseudomonas aeruginosa IS 6225; assay: as above; type: cell-based; settings: P. aeruginosa IS 6225, meropenem + compound
Method: as §1, §2, §3, §4

[3] = tested on: Stenotrophomonas maltophilia IS 6069; assay: as above; type: cell-based; settings: S. maltophilia IS 6069, meropenem + compound
Method: as §1, §2, §3, §4

[4] = tested on: Stenotrophomonas maltophilia IS 6081; assay: as above; type: cell-based; settings: S. maltophilia IS 6081, meropenem + compound
Method: as §1, §2, §3, §4

[5] = tested on: Pseudomonas aeruginosa IS 5563; assay: as above; type: cell-based; settings: for FIC: P. aeruginosa IS 5563, meropenem + compound, checkerboard
Method: as §1, §2
as §3, with “Lanes with no bacteria added served as sterility controls and lanes with no meropenem or compound served as growth controls.” left out
as §4

[6] = tested on: Stenotrophomonas maltophilia IS 5568; assay: as above; type: cell-based; settings: for FIC: S. maltophilia IS 5568, meropenem + compound, checkerboard
Method: as §1, §2
as §3, with “Lanes with no bacteria added served as sterility controls and lanes with no meropenem or compound served as growth controls.” left out
as §4

[7] = tested on: Pseudomonas aeruginosa C-10; assay: as above; type: cell-based; settings: P. aeruginosa C-10; for FIC: meropenem + compound, checkerboard
Method: as §1, §2, §3, §4

[8] = target: T1, IMP-1 (Serratia marcescens, UniProt P52699); assay: Inhibition of IMP-1-catalyzed hydrolysis of meropenem in vitro (310 nm); type: biochemical; settings: for protection of meropenem from IMP-1-catalyzed hydrolysis in vitro: IMP-1 12 nM, meropenem 200 μM, test substance 100 μM, 310 nm
T1 construct: made in house; host or cells: Escherichia coli BL21(DE3) carrying pCIP4
T1 sequence (P52699 19-246 limits assumed): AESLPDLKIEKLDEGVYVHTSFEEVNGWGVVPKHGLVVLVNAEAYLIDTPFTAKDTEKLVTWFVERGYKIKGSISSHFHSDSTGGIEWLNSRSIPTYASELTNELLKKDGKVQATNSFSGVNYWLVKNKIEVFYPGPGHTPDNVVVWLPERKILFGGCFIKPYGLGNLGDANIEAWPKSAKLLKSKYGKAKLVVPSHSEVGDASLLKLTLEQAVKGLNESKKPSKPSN

[9] = target: T2, IMP-1 metallo-β-lactamase (Serratia marcescens, UniProt P52699); assay: Inhibition of β-lactamases, nitrocefin hydrolysis; type: biochemical
T2 construct: made in house; host or cells: Escherichia coli BL21(DE3) carrying pCIP4
T2 sequence (P52699 19-246, looked up): as the sequence (P52699 19-246 limits assumed) above
Source text: IMP-1 metallo-β-lactamase was expressed in Esherichia coli BL21(DE3) carrying pCIP4 and purified as reported by Laraki et al. (Antimicrob. Agents Chemother. 1999, 43, 902-906). The homogeneity of the protein was confirmed by SDS-PAGE according to the method of Laemmli (Nature 1970, 227, 680-685). The molecular weight of purified IMP-1, Mr=25,112±0.5 Da, as determined by ESI-MS, was in agreement with that deduced from its amino acid sequence (Laraki et al. Antimicrob. Agents Chemother. 1999, 43, 890-901).
Assay conditions for IC50 determinations involved enzyme concentrations ranging between 2 and 6 nM. The concentration used for the nitrocefin substrate was 100 μM. Assays with OXA-10 and OXA-45 were conducted at pH 7.0 with 100 mM sodium phosphate buffer containing 25 mM sodium bicarbonate. Assays with KPC-2 and GC1 were performed at pH 7.0 in 50 mM HEPES buffer and assays with IMP-1 and VIM-2 were performed in the same buffer with the addition of 500 mM NaCl and 1 μM ZnSO4. BSA was used with all enzymes (except OXA-10 and KPC-2) at concentrations of 0.5-1.0 μg/mL.
Inhibitors were pre-incubated for 10 minutes at room temperature with enzyme assay solutions prior to the addition of the nitrocefin. These compounds were dissolved in DMSO and prepared at various concentrations such that the final concentration of DMSO was 1% during the pre-incubation. The reaction was initiated by the addition of the pre-incubated enzyme-cyclobutanone solution (90 μL) to a solution of nitrocefin in buffer (10 μL). Enzymatic activity was determined using the initial rate of increase in absorbance at 482 nm

[10] = tested on: β-lactamases; assay: β-Lactamase inhibition, result in words; type: biochemical
Source text: In preferred embodiments, the compounds incorporate a good leaving group at the C3′ carbon that can be readily expelled as an anion. In some embodiments, the leaving group is a C3′-benzoylthio group, which may be substituted or unsubstituted, according to the definitions provided above for substituted or unsubstituted.
This effect correlates with the expected better leaving group ability of the benzoylthio group in the hydrolysis product versus the benzoate group in the comparative compound.

SMILES	FIC ([1]; C. meningosepticum IS 5824)	FIC [2]	FIC [3]	FIC [4]	FIC [5]	FIC [6]	FIC [7]	also measured
O=C(Cc1cccs1)N[C@@H]1C(=O)N2C(C(=O)O)=C(CSC(=O)c3ccccc3)CS[C@H]12 [CMPD B]	0.5078	0.375	0.1875	0.1328	0.1328	0.1289		
O=C(Cc1ccc(Cl)cc1)N[C@@H]1C(=O)N2C(C(=O)O)=C(CSC(=O)c3ccccc3)CS[C@H]12 [CMPD D]	0.2578	2	0.1875	1.03	0.2519	0.126	1	
O=C(Cc1ccc(F)cc1)N[C@@H]1C(=O)N2C(C(=O)O)=C(CSC(=O)c3ccccc3)CS[C@H]12 [CMPD E]	0.2578	2	0.1875	1.03	0.1269	0.126	0.625	
COc1cccc(CC(=O)N[C@@H]2C(=O)N3C(C(=O)O)=C(CSC(=O)c4ccccc4)CS[C@H]23)c1 [CMPD F]	0.2578	3	0.1875	0.281	0.2519	0.126	1.5	
CC(=O)SCC1=C(C(=O)O)N2C(=O)[C@@H](NC(=O)Cc3cccs3)[C@H]2SC1 [Example 12, (6R,7R)-3-(acetylthiomethyl)-8-oxo-7-(2-(thiophen-2-yl)acetamido)-5-thia-1-azabicyclo[4.2.0]oct-2-ene-2-carboxylic acid]								performance as inhibitor [8]: poor performance
O=C(Cc1ccc(F)cc1)N[C@@H]1C(=O)N2C(C(=O)O)=C(CSC(=O)c3ccccc3)CS[C@H]12 [Example 16, (6R,7R)-3-(benzoylthiomethyl)-7-(2-(4-fluorophenyl)acetamido)-8-oxo-5-thia-1-azabicyclo[4.2.0]oct-2-ene-2-carboxylic acid]								protection of meropenem from IMP-1-catalyzed hydrolysis in vitro [8]: good protection
C[C@@H](O)[C@H]1C(=O)N2C(C(=O)O)=C(S[C@@H]3CN[C@H](C(=O)N(C)C)C3)[C@H](C)[C@H]12 [Mero, meropenem, reference compound]								MIC Mero Alone ([1]; C. meningosepticum IS 5824): 32 µg/mL; MIC ([1]; Elizabethkingia meningoseptica, IS5824, read-out: MIC Mero Alone, C. meningosepticum IS 5824): 64 µg/mL; MIC ([7]; Pseudomonas aeruginosa, C10, read-out: MIC Mero Alone): 16 µg/mL; MIC ([5]; Pseudomonas aeruginosa, IS5563, read-out: MIC Mero Alone, P. aeruginosa IS 5563): 64 µg/mL; MIC ([6]; Stenotrophomonas maltophilia, IS5568, read-out: MIC Mero Alone, S. maltophilia IS 5568): 64 µg/mL
OC(=S)c1ccccc1 [benzoylthio, reference compound]								inhibition of the MBL IMP-1 [9]: poor inhibitor
CO/N=C(\C(=O)N[C@@H]1C(=O)N2C(C(=O)O)=C(CSC(=O)c3ccco3)CS[C@H]12)c1csc(N)n1 [ceftiofur]								performance as inhibitor [8]: poor performance; protection of meropenem from IMP-1-catalyzed hydrolysis in vitro [8]: relatively poor protection
O=C(Cc1cccs1)NC1C(=O)N2C(C(=O)O)=C(COC(=O)c3ccccc3)CSC12 (centres unmarked) [oxygen analogue, reference compound]								β-lactamase inhibition [10]: substrate but not an inhibitor
